{"source": "EPA's CvTdb concentration-time database", "key": {"[1]": {"tested_on": "Rat", "experiment": "concentration in plasma after dosing", "conditions": "dosed: Perfluorodecanoic acid, 2 mg/kg, oral, Male, Harlan Sprague Dawley"}, "[2]": {"tested_on": "Rat", "experiment": "concentration in brain after dosing", "conditions": "1848 h; dosed: Perfluorodecanoic acid; 10 mg/kg; oral; Female; Harlan Sprague Dawley"}, "[3]": {"tested_on": "Rat", "experiment": "concentration in kidney after dosing", "conditions": "24 h; dosed: Perfluorodecanoic acid; 10 mg/kg; oral; Female; Harlan Sprague Dawley"}, "[4]": {"tested_on": "Rat", "experiment": "concentration in liver after dosing", "conditions": "1 h; dosed: Perfluorodecanoic acid; 10 mg/kg; oral; Female; Harlan Sprague Dawley"}, "[5]": {"tested_on": "Rat", "experiment": "concentration in kidney after dosing", "conditions": "3360 h; dosed: Perfluorodecanoic acid; 10 mg/kg; oral; Male; Harlan Sprague Dawley"}, "[6]": {"tested_on": "Rat", "experiment": "concentration in plasma after dosing", "conditions": "dosed: dichloroacetic acid, 40 mg/kg, oral, Female, Harlan Sprague Dawley"}, "[7]": {"tested_on": "Rat", "experiment": "concentration in plasma after dosing", "conditions": "dosed: dichloroacetic acid, 10 mg/kg, oral, Male, Harlan Sprague Dawley"}, "[8]": {"tested_on": "Rat", "experiment": "concentration in plasma after dosing", "conditions": "dosed: dichloroacetic acid, 60 mg/kg, iv, Female, Harlan Sprague-Dawley"}, "[9]": {"tested_on": "Rat", "experiment": "concentration in plasma after dosing", "conditions": "0.5 h; dosed: Primidone; 80 mg/kg; oral; Female; Harlan Sprague-Dawley"}, "[10]": {"tested_on": "Rat", "experiment": "concentration in plasma after dosing", "conditions": "1.5 h; dosed: Primidone; 130 mg/kg; oral; Female; F344"}, "[11]": {"tested_on": "Rat", "experiment": "concentration in plasma after dosing", "conditions": "dosed: Wyeth-14643, 2.0 mg/kg, iv, Male, Sprague-Dawley"}, "[12]": {"tested_on": "Rat", "experiment": "concentration in plasma after dosing", "conditions": "0.25 h; dosed: Wyeth-14643; 2.0 mg/kg; iv; Male; Sprague-Dawley"}, "[13]": {"tested_on": "Rat", "experiment": "concentration in plasma after dosing", "conditions": "dosed: Fluorotelomer alcohol 8+2, 12 mg/kg, oral, Male, Harlan Sprague Dawley"}, "[14]": {"tested_on": "Rat", "experiment": "concentration in plasma after dosing", "conditions": "dosed: Fluorotelomer alcohol 8+2, 12 mg/kg, iv, Male, F344"}, "[15]": {"tested_on": "Rat", "experiment": "concentration in liver after dosing", "conditions": "3 h; dosed: Fluorotelomer alcohol 8+2; 24 mg/kg; oral; Male; Harlan Sprague Dawley"}, "[16]": {"tested_on": "Rat", "experiment": "concentration in brain after dosing", "conditions": "12 h; dosed: Fluorotelomer alcohol 8+2; 24 mg/kg; oral; Male; Harlan Sprague Dawley"}, "[17]": {"tested_on": "Rat", "experiment": "concentration in brain after dosing", "conditions": "3 h; dosed: Fluorotelomer alcohol 8+2; 24 mg/kg; oral; Male; Harlan Sprague Dawley"}, "[18]": {"tested_on": "Rat", "experiment": "concentration in brain after dosing", "conditions": "3 h; dosed: Fluorotelomer alcohol 8+2; 24 mg/kg; oral; Male; Harlan Sprague Dawley", "remark": "listed apart in the source"}, "[19]": {"tested_on": "Rat", "experiment": "concentration in kidney after dosing", "conditions": "0.5 h; dosed: Fluorotelomer alcohol 8+2; 80 mg/kg; oral; Female; Harlan Sprague Dawley"}, "[20]": {"tested_on": "Rat", "experiment": "concentration in heart after dosing", "conditions": "20 min; dosed: Thiodiglycolic Acid; 20 mg/kg; iv; Female; Harlan Sprague Dawley"}, "[21]": {"tested_on": "Rat", "experiment": "concentration in liver after dosing", "conditions": "6.667 h; dosed: Thiodiglycolic Acid; 20 mg/kg; iv; Female; Harlan Sprague Dawley"}, "[22]": {"tested_on": "Rat", "experiment": "concentration in plasma after dosing", "conditions": "3 h; dosed: Thiodiglycolic Acid; 20 mg/kg; iv; Female; Harlan Sprague Dawley"}, "[23]": {"tested_on": "Rat", "experiment": "concentration in thymus after dosing", "conditions": "2 h; dosed: Thiodiglycolic Acid; 20 mg/kg; iv; Male; Harlan Sprague Dawley"}, "[24]": {"tested_on": "Rat", "experiment": "concentration in heart after dosing", "conditions": "1 h; dosed: Thiodiglycolic Acid; 20 mg/kg; iv; Male; Harlan Sprague Dawley"}, "[25]": {"tested_on": "Rat", "experiment": "concentration in liver after dosing", "conditions": "2 h; dosed: Thiodiglycolic Acid; 20 mg/kg; iv; Female; Harlan Sprague Dawley"}, "[26]": {"tested_on": "Rat", "experiment": "concentration in heart after dosing", "conditions": "8 h; dosed: Thiodiglycolic Acid; 20 mg/kg; iv; Female; Harlan Sprague Dawley"}, "[27]": {"tested_on": "Rat", "experiment": "concentration in liver after dosing", "conditions": "10 h; dosed: Thiodiglycolic Acid; 20 mg/kg; iv; Male; F344"}, "[28]": {"tested_on": "Rat", "experiment": "concentration in liver after dosing", "conditions": "5.333 h; dosed: Thiodiglycolic Acid; 20 mg/kg; iv; Male; Harlan Sprague Dawley"}, "[29]": {"tested_on": "Rat", "experiment": "concentration in thymus after dosing", "conditions": "40 min; dosed: Thiodiglycolic Acid; 20 mg/kg; iv; Female; Harlan Sprague Dawley"}, "[30]": {"tested_on": "Rat", "experiment": "concentration in plasma after dosing", "conditions": "40 min; dosed: Thiodiglycolic Acid; 20 mg/kg; iv; Female; Harlan Sprague Dawley"}, "[31]": {"tested_on": "Rat", "experiment": "concentration in thymus after dosing", "conditions": "3 h; dosed: Thiodiglycolic Acid; 20 mg/kg; iv; Female; Harlan Sprague Dawley"}, "[32]": {"tested_on": "Rat", "experiment": "concentration in heart after dosing", "conditions": "10 min; dosed: Thiodiglycolic Acid; 20 mg/kg; iv; Female; Harlan Sprague Dawley"}, "[33]": {"tested_on": "Rat", "experiment": "concentration in plasma after dosing", "conditions": "20 min; dosed: Thiodiglycolic Acid; 20 mg/kg; iv; Female; Harlan Sprague Dawley"}, "[34]": {"tested_on": "Rat", "experiment": "concentration in liver after dosing", "conditions": "2 h; dosed: Thiodiglycolic Acid; 20 mg/kg; iv; Male; Harlan Sprague Dawley"}, "[35]": {"tested_on": "Rat", "experiment": "concentration in heart after dosing", "conditions": "10 min; dosed: Bis 2-Chloroethoxy Methane; 20 mg/kg; iv; Male; F344"}, "[36]": {"tested_on": "Rat", "experiment": "concentration in thymus after dosing", "conditions": "10 min; dosed: Bis 2-Chloroethoxy Methane; 20 mg/kg; iv; Male; F344"}, "[37]": {"tested_on": "Rat", "experiment": "concentration in liver after dosing", "conditions": "10 min; dosed: Bis 2-Chloroethoxy Methane; 20 mg/kg; iv; Female; F344"}, "[38]": {"tested_on": "Rat", "experiment": "concentration in heart after dosing", "conditions": "3 h; dosed: Bis 2-Chloroethoxy Methane; 20 mg/kg; iv; Male; F344"}, "[39]": {"tested_on": "Rat", "experiment": "concentration in thymus after dosing", "conditions": "4 h; dosed: Bis 2-Chloroethoxy Methane; 20 mg/kg; iv; Male; F344"}, "[40]": {"tested_on": "Rat", "experiment": "concentration in liver after dosing", "conditions": "1 h; dosed: Bis 2-Chloroethoxy Methane; 20 mg/kg; iv; Female; F344"}}, "data": [{"smiles": "O=C(O)C(F)(F)C(F)(F)C(F)(F)C(F)(F)C(F)(F)C(F)(F)C(F)(F)C(F)(F)C(F)(F)F", "note": "[Perfluorodecanoic acid]", "values": [{"measurement": "concentration in plasma", "setting": "[1]; 12 h", "result": 7480, "unit": "ng/mL"}, {"measurement": "concentration in plasma", "setting": "[1]; 1200 h", "result": 1470, "unit": "ng/mL"}, {"measurement": "concentration in brain", "setting": "[2]", "result": 680, "unit": "ng/g"}, {"measurement": "concentration in kidney", "setting": "[3]", "result": 57900, "unit": "ng/g"}, {"measurement": "concentration in liver", "setting": "[4]", "result": 48900, "unit": "ng/g"}, {"measurement": "concentration in kidney", "setting": "[5]", "result": 866, "unit": "ng/g"}]}, {"smiles": "O=C(O)C(Cl)Cl", "note": "[dichloroacetic acid]", "values": [{"measurement": "concentration in plasma", "setting": "[6]; 2 min", "result": 787, "unit": "ng/mL"}, {"measurement": "concentration in plasma", "setting": "[6]; 1 h", "result": 6320, "unit": "ng/mL"}, {"measurement": "concentration in plasma", "setting": "[7]; 5 min", "result": 621, "unit": "ng/mL"}, {"measurement": "concentration in plasma", "setting": "[7]; 40 min", "result": 137, "unit": "ng/mL"}, {"measurement": "concentration in plasma", "setting": "[8]; 1 h", "result": 16800, "unit": "ng/mL"}, {"measurement": "concentration in plasma", "setting": "[8]; 2 h", "result": 1340, "unit": "ng/mL"}]}, {"smiles": "CCC1(c2ccccc2)C(=O)NC(=O)NC1=O", "note": "[Phenobarbital]", "values": [{"measurement": "concentration in plasma", "setting": "[9]", "result": 1480, "unit": "ng/mL"}, {"measurement": "concentration in plasma", "setting": "[10]", "result": 990, "unit": "ng/mL"}]}, {"smiles": "Cc1cccc(Nc2cc(Cl)nc(SCC(=O)O)n2)c1C", "values": [{"measurement": "concentration in plasma", "setting": "[11]; 0.5 h", "result": 5200, "unit": "ng/mL"}, {"measurement": "concentration in plasma", "setting": "[11]; 3 h", "result": 338, "unit": "ng/mL"}, {"measurement": "concentration in plasma", "setting": "[12]", "result": 17400, "unit": "ng/mL"}]}, {"smiles": "OCCC(F)(F)C(F)(F)C(F)(F)C(F)(F)C(F)(F)C(F)(F)C(F)(F)C(F)(F)F", "note": "[Fluorotelomer alcohol 8+2]", "values": [{"measurement": "concentration in plasma", "setting": "[13]; 0.5 h", "result": 274, "unit": "ng/mL"}, {"measurement": "concentration in plasma", "setting": "[13]; 9 h", "result": 10.3, "unit": "ng/mL"}, {"measurement": "concentration in plasma", "setting": "[14]; 1 h", "result": 662, "unit": "ng/mL"}, {"measurement": "concentration in plasma", "setting": "[14]; 6 h", "result": 38.1, "unit": "ng/mL"}, {"measurement": "concentration in liver", "setting": "[15]", "result": 2220, "unit": "ng/g"}, {"measurement": "concentration in brain", "setting": "[16]", "result": 151, "unit": "ng/g"}, {"measurement": "concentration in brain", "setting": "[17]", "result": 1490, "unit": "ng/g"}, {"measurement": "concentration in brain", "setting": "[18]", "result": 1780, "unit": "ng/g"}, {"measurement": "concentration in kidney", "setting": "[19]", "result": 3400, "unit": "ng/g"}]}, {"smiles": "O=C(O)CSCC(=O)O", "note": "[Thiodiglycolic Acid]", "values": [{"measurement": "concentration in heart", "setting": "[20]", "result": 5330, "unit": "ng/g"}, {"measurement": "concentration in liver", "setting": "[21]", "result": 7100, "unit": "ng/g"}, {"measurement": "concentration in plasma", "setting": "[22]", "result": 510, "unit": "ng/mL"}, {"measurement": "concentration in thymus", "setting": "[23]", "result": 2120, "unit": "ng/g"}, {"measurement": "concentration in heart", "setting": "[24]", "result": 1930, "unit": "ng/g"}, {"measurement": "concentration in liver", "setting": "[25]", "result": 39600, "unit": "ng/g"}, {"measurement": "concentration in heart", "setting": "[26]", "result": 376, "unit": "ng/g"}, {"measurement": "concentration in liver", "setting": "[27]", "result": 630, "unit": "ng/g"}, {"measurement": "concentration in liver", "setting": "[28]", "result": 22900, "unit": "ng/g"}, {"measurement": "concentration in thymus", "setting": "[29]", "result": 3380, "unit": "ng/g"}, {"measurement": "concentration in plasma", "setting": "[30]", "result": 4120, "unit": "ng/mL"}, {"measurement": "concentration in thymus", "setting": "[31]", "result": 1030, "unit": "ng/g"}, {"measurement": "concentration in heart", "setting": "[32]", "result": 8770, "unit": "ng/g"}, {"measurement": "concentration in plasma", "setting": "[33]", "result": 11700, "unit": "ng/mL"}, {"measurement": "concentration in liver", "setting": "[34]", "result": 80300, "unit": "ng/g"}]}, {"smiles": "ClCCOCOCCCl", "note": "[Bis 2-Chloroethoxy Methane]", "values": [{"measurement": "concentration in heart", "setting": "[35]", "result": 13200, "unit": "ng/g"}, {"measurement": "concentration in thymus", "setting": "[36]", "result": 45200, "unit": "ng/g"}, {"measurement": "concentration in liver", "setting": "[37]", "result": 2550, "unit": "ng/g"}, {"measurement": "concentration in heart", "setting": "[38]", "result": 116, "unit": "ng/g"}, {"measurement": "concentration in thymus", "setting": "[39]", "result": 72.9, "unit": "ng/g"}, {"measurement": "concentration in liver", "setting": "[40]", "result": 610, "unit": "ng/g"}]}]}
